Usually IC50 stands for the concentration at which inhibition is half-maximal.

The target in the assay is LFA-1 binding to ICAM-1 (Homo sapiens, UniProt P05107+P20701). The assay can be described thus: Inhibition of LFA-1 binding to ICAM-1 (LFA-1/Biotin-sICAM-1 AlphaScreen molecular assay). Conditions: highest compound concentration 1 μM in 1% DMSO, 37° C., 90 minutes. The text has this: Assay to Determine Inhibition of LFA-1 Binding to ICAM-1
Chain of LFA-1 binding to ICAM-1 (P20701 26-1170): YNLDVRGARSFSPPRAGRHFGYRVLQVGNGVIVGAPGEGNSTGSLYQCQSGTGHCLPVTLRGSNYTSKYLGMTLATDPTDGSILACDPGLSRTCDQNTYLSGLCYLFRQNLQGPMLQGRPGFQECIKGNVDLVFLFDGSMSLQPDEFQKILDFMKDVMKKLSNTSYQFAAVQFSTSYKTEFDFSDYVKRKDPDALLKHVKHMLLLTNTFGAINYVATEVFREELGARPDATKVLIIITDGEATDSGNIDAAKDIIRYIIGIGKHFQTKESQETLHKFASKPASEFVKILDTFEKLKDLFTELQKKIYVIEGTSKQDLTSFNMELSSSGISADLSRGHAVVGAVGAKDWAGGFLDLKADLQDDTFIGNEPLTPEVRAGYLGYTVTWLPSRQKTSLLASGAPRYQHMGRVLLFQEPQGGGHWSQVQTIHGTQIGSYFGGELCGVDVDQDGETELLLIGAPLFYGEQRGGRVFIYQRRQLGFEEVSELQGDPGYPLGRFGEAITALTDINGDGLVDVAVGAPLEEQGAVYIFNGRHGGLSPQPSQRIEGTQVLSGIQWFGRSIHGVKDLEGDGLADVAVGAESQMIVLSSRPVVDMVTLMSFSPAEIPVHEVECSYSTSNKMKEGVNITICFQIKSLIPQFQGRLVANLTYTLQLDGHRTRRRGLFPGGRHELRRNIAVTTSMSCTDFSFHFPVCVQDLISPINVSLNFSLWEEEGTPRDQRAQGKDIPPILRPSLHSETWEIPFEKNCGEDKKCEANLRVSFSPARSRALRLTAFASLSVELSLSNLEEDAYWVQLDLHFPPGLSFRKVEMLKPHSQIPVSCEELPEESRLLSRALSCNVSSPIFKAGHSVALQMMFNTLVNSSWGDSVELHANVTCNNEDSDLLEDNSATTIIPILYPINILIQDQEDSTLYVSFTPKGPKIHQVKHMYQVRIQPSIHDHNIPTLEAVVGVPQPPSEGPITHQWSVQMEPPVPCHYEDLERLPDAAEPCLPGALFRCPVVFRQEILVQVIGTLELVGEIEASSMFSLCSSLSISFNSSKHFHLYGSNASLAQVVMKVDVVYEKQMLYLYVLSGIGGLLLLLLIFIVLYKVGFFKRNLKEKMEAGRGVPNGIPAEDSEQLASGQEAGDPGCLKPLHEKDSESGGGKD
Chain of LFA-1 binding to ICAM-1 (P05107 23-769): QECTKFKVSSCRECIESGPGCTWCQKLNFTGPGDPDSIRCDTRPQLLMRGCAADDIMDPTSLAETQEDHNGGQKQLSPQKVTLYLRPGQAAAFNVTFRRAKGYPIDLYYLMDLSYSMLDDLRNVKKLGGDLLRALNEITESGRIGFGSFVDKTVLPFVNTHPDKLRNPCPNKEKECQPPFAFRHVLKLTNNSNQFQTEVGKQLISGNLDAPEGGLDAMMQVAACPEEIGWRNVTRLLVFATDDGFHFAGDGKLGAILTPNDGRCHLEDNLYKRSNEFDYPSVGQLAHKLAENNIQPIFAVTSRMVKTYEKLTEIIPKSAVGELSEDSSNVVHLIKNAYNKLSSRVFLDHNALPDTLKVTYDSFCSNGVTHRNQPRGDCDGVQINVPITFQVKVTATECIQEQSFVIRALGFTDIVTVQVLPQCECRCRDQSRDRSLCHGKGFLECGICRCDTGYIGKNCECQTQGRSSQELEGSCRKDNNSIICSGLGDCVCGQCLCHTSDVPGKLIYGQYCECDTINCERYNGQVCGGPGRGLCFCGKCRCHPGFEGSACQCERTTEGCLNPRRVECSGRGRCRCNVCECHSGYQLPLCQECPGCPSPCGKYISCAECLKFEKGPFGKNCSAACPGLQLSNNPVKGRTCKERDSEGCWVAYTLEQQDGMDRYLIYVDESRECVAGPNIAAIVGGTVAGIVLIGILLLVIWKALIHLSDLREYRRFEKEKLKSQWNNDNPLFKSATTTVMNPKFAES
This assay protocol is designed to study the direct antagonism, by a test compound, of the interaction of ICAM-1 with the Leukointegrin CD18/CD11a (LFA-1).
The LFA-1/Biotin-sICAM-1 molecular assay measures the ability of test compounds to inhibit binding of LFA-1 to Biotinylated-sICAM using AlphaScreen technology (Ref: Wilson, J, Rossi, C P, Carboni, S, Fremaux, C, Perrin, D, Soto, C, Kosco-Vilbois, M, and Scheer, A: A Homogeneous 384-Well High-Throughput Binding Assay for a TNF Receptor Using Alphascreen Technology. J Biomol Screen 2003; 8:522-532) that uses TS2/4(anti-LFA-1)-custom conjugated AlphaLisa acceptor beads and streptavidin-coated donor beads from PerkinElmer. The assay was performed in white OptiPlates-384 in a volume of 60 μL using assay buffer (Dulbecco's PBS containing calcium and magnesium, 2 mM MgCl2, 0.1 mM PMSF, 0.1% BSA, pH 7.1). To each well, Biotin-sICAM was added followed by purified LFA-1 (in buffer of 50 mM triethylamine, 150 mM NaCl, 1% beta octylglucoside, 2 mM MgCl2 neutralized to pH with 1M Tris-HCl, pH 7.5). For compound testing, compound was added in 5 uL to the above in 25 uL. LFA-1 and Biotin-sICAM-1 were used at concentrations that would yield a signal to background ratio of 8-10. The highest concentration of compound was 1 μM in 1% DMSO. Positive controls were wells without compound containing LFA-1, while blanks were wells without both compound and LFA-1. Plates were mixed and incubated at 37° C. for 90 minutes. This was followed by addition of 15 μL/well TS2/4-congugated acceptor beads diluted in PBS containing 0.1% BSA for a final concentration of 10 μg/mL. The plates were mixed and incubated in the dark for 30 minutes at room temperature followed by addition of 15 μL/well streptavidin-coated donor beads diluted in PBS containing 0.1% BSA at a final concentration of 15 μg/mL. The plates were mixed and incubated in the dark for 60 minutes at room temperature and then read on an EnVision Multilabel Reader using AlphaScreen 384-well OptiPlate protocol.
The compound `CN(C)C1CCN(C(=O)c2ccnc(C3(NC(=O)C4(NC(=O)c5cnc6n5[C@](C)(Cc5ccc(C#N)cc5)C(=O)N6c5cc(Cl)cc(Cl)c5)CC4)CC3)c2)C1` (stereo partly drawn) [Compound 1] returned an IC50 of 1.4 nM.
On to `C[C@@]1(Cc2ccc(C#N)cc2)C(=O)N(c2cc(Cl)cc(Cl)c2)c2ncc(C(=O)NC3(C(=O)NC4(c5ccc(C(=O)NCc6ccco6)cn5)CC4)CC3)n21` [compound 3], for which the IC50 turned out to be 0.29 nM. This IC50 is about 4.8-fold lower than that of the compound before.
As to `C[C@@]1(Cc2ccc(C#N)cc2)C(=O)N(c2cc(Cl)cc(Cl)c2)c2ncc(C(=O)NC3(C(=O)NC4(c5cc(C(=O)NCCO)ccn5)CC4)CC3)n21` [compound 4], the 50% inhibitory concentration (IC50) is 0.92 nM.
Under `C[C@@]1(Cc2ccc(C#N)cc2)C(=O)N(c2cc(Cl)cc(Cl)c2)c2ncc(C(=O)NC3(C(=O)NC4(c5ccc(C(=O)N6CC[C@@H](O)C6)cn5)CC4)CC3)n21` [compound 5] stands 0.59 nM; under `C[C@@]1(Cc2ccc(C#N)cc2)C(=O)N(c2cc(Cl)cc(Cl)c2)c2ncc(C(=O)NC3(C(=O)NC4(c5cc(C(=O)NCCc6ccccn6)ccn5)CC4)CC3)n21` [compound 6], 0.82 nM.
Under `C[C@@]1(Cc2ccc(C#N)cc2)C(=O)N(c2cc(Cl)cc(Cl)c2)c2ncc(C(=O)NC3(C(=O)NC4(c5cc(C(=O)N6CCC(CO)CC6)ccn5)CC4)CC3)n21` [compound 7] stands 1.4 nM; under `C[C@@]1(Cc2ccc(C#N)cc2)C(=O)N(c2cc(Cl)cc(Cl)c2)c2ncc(C(=O)NC3(C(=O)NC4(c5ccc(C(=O)N6CCC[C@H]6C(N)=O)cn5)CC4)CC3)n21` [compound 8], 1.6 nM.
In turn, `C[C@@]1(Cc2ccc(C#N)cc2)C(=O)N(c2cc(Cl)cc(Cl)c2)c2ncc(C(=O)NC3(C(=O)NC4(c5ccc(C(=O)N6CCCCC6)cn5)CC4)CC3)n21` [compound 9] yielded a 50% inhibitory concentration (IC50) of 1.8 nM.
The value for `C[C@H](NC(=O)c1ccnc(C2(NC(=O)C3(NC(=O)c4cnc5n4[C@](C)(Cc4ccc(C#N)cc4)C(=O)N5c4cc(Cl)cc(Cl)c4)CC3)CC2)c1)c1ccccc1` [compound 10] was 6.2 nM; that for `C[C@@]1(Cc2ccc(C#N)cc2)C(=O)N(c2cc(Cl)cc(Cl)c2)c2ncc(C(=O)NC3(C(=O)NC4(c5cccc(C(=O)N6CCCC6)n5)CC4)CC3)n21` [compound 11] was 3.4 nM.
`CC(NC(=O)c1cccc(C2(NC(=O)C3(NC(=O)c4cnc5n4[C@](C)(Cc4ccc(C#N)cc4)C(=O)N5c4cc(Cl)cc(Cl)c4)CC3)CC2)n1)c1ccccn1` (stereo partly drawn) [compound 12] showed an IC50 of 8.5 nM.
Compound `C[C@@]1(Cc2ccc(C#N)cc2)C(=O)N(c2cc(Cl)cc(Cl)c2)c2ncc(C(=O)NC3(C(=O)NC4(c5ccc(C(=O)NCC6CC6)cn5)CC4)CC3)n21` [compound 13] returned an IC50 of 0.44 nM. Against the preceding compound, the IC50 is about 19-fold lower.
On to `C[C@@]1(Cc2ccc(C#N)cc2)C(=O)N(c2cc(Cl)cc(Cl)c2)c2ncc(C(=O)NC3(C(=O)NC4(c5ccc(C(=O)NCC(N)=O)cn5)CC4)CC3)n21` [compound 14], for which the IC50 was 0.27 nM.
As for `CC(=O)NC1CCN(C(=O)c2cccc(C3(NC(=O)C4(NC(=O)c5cnc6n5[C@](C)(Cc5ccc(C#N)cc5)C(=O)N6c5cc(Cl)cc(Cl)c5)CC4)CC3)n2)C1` (stereo partly drawn) [compound 15], the IC50 was found to be 1.5 nM.
In the case of `C[C@@]1(Cc2ccc(C#N)cc2)C(=O)N(c2cc(Cl)cc(Cl)c2)c2ncc(C(=O)NC3(C(=O)NC4(c5cccc(C(=O)N6CCCCC6)n5)CC4)CC3)n21` [compound 16], the IC50 was 12 nM.
Under `C[C@@H](CO)NC(=O)c1ccnc(C2(NC(=O)C3(NC(=O)c4cnc5n4[C@](C)(Cc4ccc(C#N)cc4)C(=O)N5c4cc(Cl)cc(Cl)c4)CC3)CC2)c1` [compound 17] stands 0.18 nM.
The value for `C[C@@]1(Cc2ccc(C#N)cc2)C(=O)N(c2cc(Cl)cc(Cl)c2)c2ncc(C(=O)NC3(C(=O)NC4(c5cccc(C(=O)N6CCC(CO)CC6)n5)CC4)CC3)n21` [compound 18] was 1.8 nM; that for `CN(CCO)C(=O)c1cccc(C2(NC(=O)C3(NC(=O)c4cnc5n4[C@](C)(Cc4ccc(C#N)cc4)C(=O)N5c4cc(Cl)cc(Cl)c4)CC3)CC2)n1` [compound 20] was 1 nM; that for `C[C@@]1(Cc2ccc(C#N)cc2)C(=O)N(c2cc(Cl)cc(Cl)c2)c2ncc(C(=O)NC3(C(=O)NC4(c5ccc(C(=O)NCc6cccnc6)cn5)CC4)CC3)n21` [compound 21] was 0.81 nM.
As to `CC(=O)N1CCN(C(=O)c2cccc(C3(NC(=O)C4(NC(=O)c5cnc6n5[C@](C)(Cc5ccc(C#N)cc5)C(=O)N6c5cc(Cl)cc(Cl)c5)CC4)CC3)n2)CC1` [compound 22], the IC50 was found to be 2.1 nM. Compared with the last compound, the IC50 is about 2.6-fold higher.
The value for `C[C@@]1(Cc2ccc(C#N)cc2)C(=O)N(c2cc(Cl)cc(Cl)c2)c2ncc(C(=O)NC3(C(=O)NC4(c5cccc(C(=O)N6CCCC(C(N)=O)C6)n5)CC4)CC3)n21` (stereo partly drawn) [compound 23] was 2.6 nM.
The value for `C[C@@]1(Cc2ccc(C#N)cc2)C(=O)N(c2cc(Cl)cc(Cl)c2)c2ncc(C(=O)NC3(C(=O)NC4(c5cc(C(=O)NCc6ccccc6)ccn5)CC4)CC3)n21` [compound 24] was 4.1 nM; that for `C[C@@]1(Cc2ccc(C#N)cc2)C(=O)N(c2cc(Cl)cc(Cl)c2)c2ncc(C(=O)NC3(C(=O)NC4(c5cccc(C(=O)NCc6ccccc6)n5)CC4)CC3)n21` [compound 25] was 32 nM.
Compound `C[C@@]1(Cc2ccc(C#N)cc2)C(=O)N(c2cc(Cl)cc(Cl)c2)c2ncc(C(=O)NC3(C(=O)NC4(c5cccc(C(=O)NCc6ccncc6)n5)CC4)CC3)n21` [compound 26] yielded an IC50 of 5.2 nM. Against the preceding compound, the IC50 is about 6.2-fold lower.
In turn, `CC(CO)NC(=O)c1ccc(C2(NC(=O)C3(NC(=O)c4cnc5n4[C@](C)(Cc4ccc(C#N)cc4)C(=O)N5c4cc(Cl)cc(Cl)c4)CC3)CC2)nc1` (stereo partly drawn) [compound 27] displayed an IC50 of 0.74 nM.
The value for `C[C@@]1(Cc2ccc(C#N)cc2)C(=O)N(c2cc(Cl)cc(Cl)c2)c2ncc(C(=O)NC3(C(=O)NC4(c5cccc(C(=O)N6CCC[C@H]6C(N)=O)n5)CC4)CC3)n21` [compound 28] was 2.5 nM; that for `C[C@@]1(Cc2ccc(C#N)cc2)C(=O)N(c2cc(Cl)cc(Cl)c2)c2ncc(C(=O)NC3(C(=O)NC4(c5ccc(C(=O)N6CCCC(CO)C6)cn5)CC4)CC3)n21` (stereo partly drawn) [compound 29] was 0.43 nM; that for `C[C@@]1(Cc2ccc(C#N)cc2)C(=O)N(c2cc(Cl)cc(Cl)c2)c2ncc(C(=O)NC3(C(=O)NC4(c5cccc(C(=O)NCCO)n5)CC4)CC3)n21` [compound 30] was 0.91 nM.
As for `CNC(=O)c1ccnc(C2(NC(=O)C3(NC(=O)c4cnc5n4[C@](C)(Cc4ccc(C#N)cc4)C(=O)N5c4cc(Cl)cc(Cl)c4)CC3)CC2)c1` [compound 31], the IC50 was found to be 0.67 nM.
Under `C[C@@]1(Cc2ccc(C#N)cc2)C(=O)N(c2cc(Cl)cc(Cl)c2)c2ncc(C(=O)NC3(C(=O)NC4(c5cc(C(=O)NCCc6ccccc6)ccn5)CC4)CC3)n21` [compound 32] stands 4 nM.
Under `C[C@H](NC(=O)c1ccc(C2(NC(=O)C3(NC(=O)c4cnc5n4[C@](C)(Cc4ccc(C#N)cc4)C(=O)N5c4cc(Cl)cc(Cl)c4)CC3)CC2)nc1)c1ccccc1` [compound 33] stands 2.7 nM; under `CN(CCO)C(=O)c1ccnc(C2(NC(=O)C3(NC(=O)c4cnc5n4[C@](C)(Cc4ccc(C#N)cc4)C(=O)N5c4cc(Cl)cc(Cl)c4)CC3)CC2)c1` [compound 34], 0.7 nM.
Regarding `C[C@@]1(Cc2ccc(C#N)cc2)C(=O)N(c2cc(Cl)cc(Cl)c2)c2ncc(C(=O)NC3(C(=O)NC4(c5ccc(C(=O)NCCO)cn5)CC4)CC3)n21` [compound 35], the IC50 is 0.39 nM.
Under `C[C@@]1(Cc2ccc(C#N)cc2)C(=O)N(c2cc(Cl)cc(Cl)c2)c2ncc(C(=O)NC3(C(=O)NC4(c5ccc(C(=O)NCc6ccccn6)cn5)CC4)CC3)n21` [compound 36] stands 0.25 nM; under `CN1CCN(C(=O)c2ccc(C3(NC(=O)C4(NC(=O)c5cnc6n5[C@](C)(Cc5ccc(C#N)cc5)C(=O)N6c5cc(Cl)cc(Cl)c5)CC4)CC3)nc2)CC1` [compound 37], 2.4 nM.
`CN(C)C(=O)c1ccnc(C2(NC(=O)C3(NC(=O)c4cnc5n4[C@](C)(Cc4ccc(C#N)cc4)C(=O)N5c4cc(Cl)cc(Cl)c4)CC3)CC2)c1` [compound 38] gave an IC50 of 0.87 nM.
The value for `C[C@@]1(Cc2ccc(C#N)cc2)C(=O)N(c2cc(Cl)cc(Cl)c2)c2ncc(C(=O)NC3(C(=O)NC4(c5cccc(C(=O)N6CCNCC6)n5)CC4)CC3)n21` [compound 39] was 3.6 nM; that for `C[C@@]1(Cc2ccc(C#N)cc2)C(=O)N(c2cc(Cl)cc(Cl)c2)c2ncc(C(=O)NC3(C(=O)NC4(c5cccc(C(=O)NCCN)n5)CC4)CC3)n21` [compound 40] was 1.3 nM; that for `COCCNC(=O)c1ccc(C2(NC(=O)C3(NC(=O)c4cnc5n4[C@](C)(Cc4ccc(C#N)cc4)C(=O)N5c4cc(Cl)cc(Cl)c4)CC3)CC2)nc1` [compound 41] was 0.14 nM.

These data come from US8481750B2 (Boehringer Ingelheim International GmbH, priority 2009, dated 2013).
